{
  "source": "patent US20210107865A1",
  "about": "“ALIPHATIC AMINE AND ITS PREPARATION METHOD AND USE” (COVESTRO D[…], priority 2017, published 2021)",
  "experiment": "Solubility of lysine in amine compounds and solvents",
  "assay_type": "physicochemical",
  "details": "at 100° C. under normal pressure",
  "data": [
    {"smiles": "NCCCC[C@H](N)C(=O)O", "note": "[lysine, L-lysine]", "values": [
      {"measurement": "solubility of lysine in 1,5-pentanediamine", "setting": "in 1,5-pentanediamine", "result": "solubility of lysine in 1,5-pentanediamine is 33 g/100 g,"},
      {"measurement": "solubility of lysine in 1,6-hexanediamine", "setting": "in 1,6-hexanediamine", "result": "is 4.6 g/100 g, measured at 100 °C under normal pressure."},
      {"measurement": "solubility of lysine in cyclohexanol", "setting": "in cyclohexanol", "result": "Ltd. The solubility of lysine in cyclohexanol is 0.01 g/100 g/100 g"},
      {"measurement": "solubility of lysine in ethylene glycol", "setting": "in ethylene glycol", "result": "The solubility of lysine in ethylene glycol is 20 g/100 g,"},
      {"measurement": "solubility of lysine in isophoronediamine", "setting": "in isophoronediamine", "result": "is 5.2 g/100 g, measured at 100 °C under normal pressure."}
    ]}
  ]
}
